The numbers were not newly measured in US5942536A, “N-[2-substituted-3-(2-aminoethyl)-1H-indol-5-YL]-Amides: new 5-HT1F agonists” (Eli Lilly and Company, priority 1998, dated 1999), which cites them from elsewhere.

The subject of series [1] is cephalic vascular smooth muscle. Particulars: literature (Humphrey, et al.).
For series [2] the following is noted: literature (Humphrey, et al.).
For series [3], the system named is neurogenic inflammation. As to conditions: literature (Moskowitz).
Series [4] concerns the target T1, 5-HT1F receptor (Homo sapiens, UniProt P30939).
T1 sequence (P30939 1-366): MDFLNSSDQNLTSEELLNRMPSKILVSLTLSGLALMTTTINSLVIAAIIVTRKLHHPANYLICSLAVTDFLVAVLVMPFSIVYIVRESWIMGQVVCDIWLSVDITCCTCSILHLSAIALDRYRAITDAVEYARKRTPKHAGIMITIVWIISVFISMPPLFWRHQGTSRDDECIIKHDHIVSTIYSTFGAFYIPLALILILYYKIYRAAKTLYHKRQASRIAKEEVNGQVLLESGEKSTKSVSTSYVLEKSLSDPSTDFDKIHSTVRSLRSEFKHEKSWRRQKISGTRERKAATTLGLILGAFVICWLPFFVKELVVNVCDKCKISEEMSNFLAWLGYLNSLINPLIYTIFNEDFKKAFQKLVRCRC
Particulars: literature (Weinshank); reference for Emax.

In the case of `CNS(=O)(=O)Cc1ccc2[nH]cc(CCN(C)C)c2c1` [sumatriptan], the “contraction of cephalic vascular smooth muscle” value in series [1] was “contract cephalic vascular smooth muscle”. In series [2], the “effective in the treatment of migraine” value is recorded as “effective in the treatment of migraine”. Also, the “block of neurogenic inflammation” value in series [3] is recorded as “blocked”.
Regarding `NCCc1c[nH]c2ccc(O)cc12` [serotonin], the “effect on forskolin stimulated cAMP production” value in series [4] is recorded as “maximal effect”.
